In general, IC50 refers to the concentration needed to halve the response being measured.

The first assay deals with T1, recombinant N-terminal GST-tagged human Rho kinase 2 (ROCK2, amino acids 1-552) (Homo sapiens, UniProt O75116).
T1 construct: ROCK2, amino acids 1-552; purchased Invitrogen Inc. PV3759
T1 sequence (O75116 1-552): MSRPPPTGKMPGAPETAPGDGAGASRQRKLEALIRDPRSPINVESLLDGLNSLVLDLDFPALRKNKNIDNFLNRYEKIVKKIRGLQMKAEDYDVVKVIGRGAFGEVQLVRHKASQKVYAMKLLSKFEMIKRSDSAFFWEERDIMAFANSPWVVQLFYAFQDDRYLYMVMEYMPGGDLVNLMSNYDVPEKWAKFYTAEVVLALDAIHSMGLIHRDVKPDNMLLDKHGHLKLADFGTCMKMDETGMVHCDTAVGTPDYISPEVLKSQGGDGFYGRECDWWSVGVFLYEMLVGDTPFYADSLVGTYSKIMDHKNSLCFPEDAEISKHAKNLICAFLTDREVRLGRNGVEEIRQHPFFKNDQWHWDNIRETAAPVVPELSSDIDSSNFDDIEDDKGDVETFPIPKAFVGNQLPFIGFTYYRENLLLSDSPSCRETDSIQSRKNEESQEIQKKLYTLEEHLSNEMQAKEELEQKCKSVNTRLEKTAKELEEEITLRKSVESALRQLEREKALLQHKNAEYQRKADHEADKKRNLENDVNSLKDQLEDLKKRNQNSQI
Kind of assay: In vitro Rho kinase assay (luciferase-based ATP consumption), ROCK2. In kind it is biochemical. The following applies: ROCK2 IC50, recombinant GST-tagged human ROCK2, luciferase-based ATP consumption. The method, boiled down:
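Luciferase-based luminescence of leftover ATP after 2 h at 30 °C, where inhibition raises signal, reports activity of GST-tagged ROCK2 (aa 1-552) at 0.82 μg/ml. Conditions: S6 peptide 100 μg/ml, […], pH 7.5 Tris buffer. Results given as percent of H-1152P control activity.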
As for `Cc1c(-c2ccnc(N)n2)sc2ccc(C(=O)NCc3ccc(Cl)cc3Cl)cc12` [Example 447, Cc1c(sc2ccc(cc12)C(═O)NCc3ccc(Cl)cc3Cl)-c4ccnc(N)n4], the IC50 was more than 5 µM.

Staying with this assay, now noted: recombinant GST-tagged human ROCK2, luciferase-based ATP consumption; read-out: ROCK2 IC50.
Consider `Cc1c(-c2ccnc(N)n2)sc2ccc(C(=O)N3CCN(c4ccc([N+](=O)[O-])cc4)CC3)cc12` [Example 552, Cc1c(sc2ccc(cc12)C(═O)N3CCN(CC3)c4ccc(cc4)[N+]([O−])═O)-c5ccnc(N)n5], for which the IC50 is less than 5 µM. With `Cc1c(-c2ccnc(N)n2)sc2ccc(C(=O)NC3CCC(C)CC3)cc12` (centres unmarked) [Example 368, CC1CCC(CC1)NC(═O)c2ccc3sc(c(C)c3c2)-c4ccnc(N)n4], the 50% inhibitory concentration (IC50) is more than 5 µM. Still for that read-out and setting: to `Cc1c(-c2ccnc(N)n2)sc2ccc(C(=O)N3CCN(Cc4ccc5c(c4)OCO5)CC3)cc12` [Example 563, Cc1c(sc2ccc(cc12)C(═O)N3CCN(CC3)Cc4ccc5OCOc5c4)-c6ccnc(N)n6] belongs less than 5 µM. Same read-out and setting: to `Cc1cccc(N2CCN(C(=O)c3ccc4sc(-c5ccnc(N)n5)c(C)c4c3)CC2)c1C` [Example 534, Cc1cccc(N2CCN(CC2)C(═O)c3ccc4sc(c(C)c4c3)-c5ccnc(N)n5)c1C] belongs more than 5 µM; to `Cc1ccc([C@@H](C)NC(=O)c2ccc3sc(-c4ccnc(N)n4)c(C)c3c2)cc1` [Example 395, C[C@@H](NC(═O)c1ccc2sc(c(C)c2c1)-c3ccnc(N)n3)c4ccc(C)cc4], more than 5 µM. `CCCN(CCC)C(=O)c1ccc2sc(-c3ccnc(N)n3)c(C)c2c1` [Example 478, CCCN(CCC)C(═O)c1ccc2sc(c(C)c2c1)-c3ccnc(N)n3]: the IC50 is less than 5 µM.

Turning to `Cc1c(-c2ccnc(N)n2)sc2ccc(C(=O)N3CCCCC3C)cc12` (centres unmarked) [Example 472, CC1CCCCN1C(═O)c2ccc3sc(c(C)c3c2)-c4ccnc(N)n4], the IC50 was less than 5 µM.

In the case of `COc1cccc(CNC(=O)c2ccc3sc(-c4ccnc(N)n4)c(C)c3c2)c1` [Example 404, COc1cccc(CNC(═O)c2ccc3sc(c(C)c3c2)-c4ccnc(N)n4)c1], the half-inhibitory concentration (IC50) is less than 5 µM. For `COC[C@@H]1CCCN1C(=O)c1ccc2sc(-c3ccnc(N)n3)c(C)c2c1` [Example 487, COC[C@@H]1CCCN1C(═O)c2ccc3sc(c(C)c3c2)-c4ccnc(N)n4], the IC50 is more than 5 µM.

Take `Cc1c(-c2ccnc(N)n2)sc2ccc(C(=O)NC3CCCc4ccccc43)cc12` (centres unmarked) [Example 417, Cc1c(sc2ccc(cc12)C(═O)NC3CCCc4ccccc34)-c5ccnc(N)n5]: the IC50 was less than 5 µM. In the case of `Cc1c(-c2ccnc(N)n2)sc2ccc(C(=O)NC3CCCCC3C)cc12` (centres unmarked) [Example 371, CC1CCCCC1NC(═O)c2ccc3sc(c(C)c3c2)-c4ccnc(N)n4], the IC50 was more than 5 µM. On the same count and under the same terms, to `Cc1ccc(CCNC(=O)c2ccc3sc(-c4ccnc(N)n4)c(C)c3c2)cc1` [Example 392, Cc1ccc(CCNC(═O)c2ccc3sc(c(C)c3c2)-c4ccnc(N)n4)cc1] belongs more than 5 µM; to `Cc1c(-c2ccnc(N)n2)sc2ccc(C(=O)NCCNC(=O)OC(C)(C)C)cc12` [Example 434, Cc1c(sc2ccc(cc12)C(═O)NCCNC(═O)OC(C)(C)C)-c3ccnc(N)n3], less than 5 µM. In the case of `Cc1c(-c2ccnc(N)n2)sc2ccc(C(=O)NCCc3cccc(F)c3)cc12` [Example 407, Cc1c(sc2ccc(cc12)C(═O)NCCc3cccc(F)c3)-c4ccnc(N)n4], the IC50 was less than 5 µM.

Take `Cc1c(-c2ccnc(N)n2)sc2ccc(C(=O)N3CCN(c4ccc(O)cc4)CC3)cc12` [Example 523, Cc1c(sc2ccc(cc12)C(═O)N3CCN(CC3)c4ccc(O)cc4)-c5ccnc(N)n5]: the IC50 is less than 5 µM. On the same count and under the same terms, to `Cc1c(-c2ccnc(N)n2)sc2ccc(C(=O)NCc3ccc(F)c(Cl)c3)cc12` [Example 432, Cc1c(sc2ccc(cc12)C(═O)NCc3ccc(F)c(Cl)c3)-c4ccnc(N)n4] belongs less than 5 µM; to `CCC(C)CNC(=O)c1ccc2sc(-c3ccnc(N)n3)c(C)c2c1` (centres unmarked) [Example 348, CCC(C)CNC(═O)c1ccc2sc(c(C)c2c1)-c3ccnc(N)n3], less than 5 µM. On the same count and under the same terms, to `CCN(CC)CCN(Cc1ccccc1)C(=O)c1ccc2sc(-c3ccnc(N)n3)c(C)c2c1` [Example 551, CCN(CC)CCN(Cc1ccccc1)C(═O)c2ccc3sc(c(C)c3c2)-c4ccnc(N)n4] belongs less than 5 µM; to `Cc1ccccc1CNC(=O)c1ccc2sc(-c3ccnc(N)n3)c(C)c2c1` [Example 379, Cc1ccccc1CNC(═O)c2ccc3sc(c(C)c3c2)-c4ccnc(N)n4], less than 5 µM. On the same count and under the same terms, next, `Cc1c(-c2ccnc(N)n2)sc2ccc(C(=O)N3CCN(c4ccccc4Cl)CC3)cc12` [Example 569, Cc1c(sc2ccc(cc12)C(═O)N3CCN(CC3)c4ccccc4Cl)-c5ccnc(N)n5]: more than 5 µM; `Cc1c(-c2ccnc(N)n2)sc2ccc(C(=O)NCC(C)c3ccccc3)cc12` (centres unmarked) [Example 396, CC(CNC(═O)c1ccc2sc(c(C)c2c1)-c3ccnc(N)n3)c4ccccc4]: less than 5 µM. With `Cc1c(-c2ccnc(N)n2)sc2ccc(C(=O)N(C)CCO)cc12` [Example 464, CN(CCO)C(═O)c1ccc2sc(c(C)c2c1)-c3ccnc(N)n3], the IC50 was less than 5 µM.

In the case of `Cc1ccc(S(=O)(=O)NCCNC(=O)c2ccc3sc(-c4ccnc(N)n4)c(C)c3c2)cc1` [Example 458, Cc1ccc(cc1)S(═O)(═O)NCCNC(═O)c2ccc3sc(c(C)c3c2)-c4ccnc(N)n4], the IC50 is less than 5 µM. `Cc1cccc(N2CCN(C(=O)c3ccc4sc(-c5ccnc(N)n5)c(C)c4c3)CC2C)c1` (centres unmarked) [Example 535, CC1CN(CCN1c2cccc(C)c2)C(═O)c3ccc4sc(c(C)c4c3)-c5ccnc(N)n5]: the concentration for half-maximal inhibition (IC50) was more than 5 µM. Same read-out and setting: to `CCCCN(CC)C(=O)c1ccc2sc(-c3ccnc(N)n3)c(C)c2c1` [Example 477, CCCCN(CC)C(═O)c1ccc2sc(c(C)c2c1)-c3ccnc(N)n3] belongs less than 5 µM; to `CCCNC(=O)c1ccc2sc(-c3ccnc(N)n3)c(C)c2c1` [Example 335, CCCNC(═O)c1ccc2sc(c(C)c2c1)-c3ccnc(N)n3], less than 5 µM. With `Cc1c(-c2ccnc(N)n2)sc2ccc(C(=O)NC3CCC3)cc12` [Example 339, Cc1c(sc2ccc(cc12)C(═O)NC3CCC3)-c4ccnc(N)n4], the IC50 is less than 5 µM. On to `CCN(CC)CCCC(C)NC(=O)c1ccc2sc(-c3ccnc(N)n3)c(C)c2c1` (centres unmarked) [Example 431, CCN(CC)CCCC(C)NC(═O)c1ccc2sc(c(C)c2c1)-c3ccnc(N)n3], for which the IC50 was more than 5 µM. For the molecule `Cc1c(-c2ccnc(N)n2)sc2ccc(C(=O)N3CCN(C4CCCCC4)CC3)cc12` [Example 519, Cc1c(sc2ccc(cc12)C(═O)N3CCN(CC3)C4CCCCC4)-c5ccnc(N)n5], the IC50 is more than 5 µM. Turning to `Cc1c(-c2ccnc(N)n2)sc2ccc(C(=O)N3Cc4ccccc4C3)cc12` [Example 491, Cc1c(sc2ccc(cc12)C(═O)N3Cc4ccccc4C3)-c5ccnc(N)n5], the IC50 is less than 5 µM.

On to `Cc1c(-c2ccnc(N)n2)sc2ccc(C(=O)NCc3ccc(C(C)(C)C)cc3)cc12` [Example 436, Cc1c(sc2ccc(cc12)C(═O)NCc3ccc(cc3)C(C)(C)C)-c4ccnc(N)n4], for which the IC50 was more than 5 µM.

`Cc1c(-c2ccnc(N)n2)sc2ccc(C(=O)NCCC(c3ccccc3)c3ccccc3)cc12` [Example 457, Cc1c(sc2ccc(cc12)C(═O)NCCC(c3ccccc3)c4ccccc4)-c5ccnc(N)n5]: the IC50 is more than 5 µM. `Cc1c(-c2ccnc(N)n2)sc2ccc(C(=O)N3CCCC(CO)C3)cc12` (centres unmarked) [Example 486, Cc1c(sc2ccc(cc12)C(═O)N3CCCC(CO)C3)-c4ccnc(N)n4]: the IC50 was less than 5 µM.

With `Cc1c(-c2ccnc(N)n2)sc2ccc(C(=O)NCCCN3CCCC3=O)cc12` [Example 411, Cc1c(sc2ccc(cc12)C(═O)NCCCN3CCCC3═O)-c4ccnc(N)n4], the IC50 was more than 5 µM. The same measure, in the same setting: next, `Cc1c(-c2ccnc(N)n2)sc2ccc(C(=O)N3CCC(N(C)C)C3)cc12` (centres unmarked) [Example 484, CN(C)C1CCN(C1)C(═O)c2ccc3sc(c(C)c3c2)-c4ccnc(N)n4]: less than 5 µM; `COc1ccccc1CCNC(=O)c1ccc2sc(-c3ccnc(N)n3)c(C)c2c1` [Example 424, COc1ccccc1CCNC(═O)c2ccc3sc(c(C)c3c2)-c4ccnc(N)n4]: less than 5 µM. Still for that read-out and setting: next, `Cc1c(-c2ccnc(N)n2)sc2ccc(C(=O)N(C)Cc3cccc4ccccc34)cc12` [Example 553, CN(Cc1cccc2ccccc12)C(═O)c3ccc4sc(c(C)c4c3)-c5ccnc(N)n5]: more than 5 µM.
